Data as given in article PMC10223470 (Molecules, 2023).

Assays:
[1] = target: T1, human dopamine D3 receptor (Homo sapiens, UniProt P35462); assay: Competition radioligand binding at human D3 receptor ([3H]-Spiperone); conditions: mean ± SEM of 2 independent experiments, read-out: huD3 % inh. at 10 µM
T1 construct: expressed in transfected cells; host or cells: CHO-K1
Experimental: (§1) Competition radioligand binding assays were performed on membranes isolated from cell lines stably expressing the cloned human receptors, which were either in-house or commercially available. […] Assays (250 μL assay final volume) were carried out in 96-well polypropylene plates in duplicate. In short, the suspension of appropriate membrane protein was incubated in an assay buffer with the addition of the corresponding radioligand, in the presence or absence of a tested compound or reference compound. […] After the incubation, the content of the test plates was transferred to 96 well plates with glass fiber filter GF/B or GF/C, previously pretreated with polyethyleneimine (PEI), and rapidly filtered with the use of vacuum, followed by rapid washing with cold (4 °C) wash buffer. After that, the filter plates were dried at 60 °C for 1 h. Then, 30 μL of liquid scintillation cocktail (UniverSol-ES, MP Biomedicals, Solon, OH, USA) was added to each well of the filter plates, and the radioactivity was measured in a MicroBeta^2 microplate scintillation counter (PerkinElmer, Madrid, Spain).
(§2) Competition binding curves were fitted to a one-site competition binding model (Fit Ki) with the use of Prism 7 software (GraphPad, San Diego, CA, USA). logKi (log of the equilibrium dissociation constant (Ki)) values were obtained after constraining the concentration of radioligand employed in the assay and its dissociation constant (KD) as determined in saturation radioligand binding assays.

mice [2] = assay: Motor coordination, chimney test; assay type: in vivo; conditions: 25, 50 and 75 mg/kg i.p., 60 min before testing
Experimental: The experiments were carried out on 6 weeks old naive Swiss male mice (Experimental Medicine Center (OMD), Lublin, Poland), weighing 28–30 g. The cages with mice were located in air-conditioned rooms maintaining the ambient temperature within the range of 23–25 °C. The animals were provided with a natural 12 h day/night cycle, replicating the day and night mode. Each testing group was represented by 8–10 animals, depending on the research schedule. All experiments were conducted according to the National Institute of Health Guidelines for the Care and Use of Laboratory Animals (8th edition) and to the European Community Council Directive for the Care and Use of Laboratory Animals of 22 September 2010 (2010/63/EU) and were approved by the Local Ethical Committee (number of ethical approval: 147/2018). Compound 17 (25, 50, 75 mg/kg) was suspended in 1% Tween 80 in saline solution and was administered intraperitoneally (i.p.) 60 min before the test. […] Imipramine hydrochloride (30 mg/kg, Sigma-Aldrich was administered intraperitoneally (i.p.) 60 min before the test. […] Sigma-Aldrich, USA) was given subcutaneously (s.c.). Prior to administration, the agent was dissolved in saline and injected 30 min before the test. […] Motor coordination has been assessed in mice using the chimney test and the rotarod test, according to the procedure we had used before. […]

[3] = target: T2, human dopamine D1 receptor (Homo sapiens, UniProt P21728); assay: Competition radioligand binding at human D1 receptor ([3H]-SCH-23390); conditions: mean ± SEM of 2 independent experiments, read-out: huD1 % inh. at 10 µM
T2 construct: expressed in transfected cells; host or cells: CHO-K1
Experimental: as §1, §2

human D2S receptor = target: T3, human D2S receptor (Homo sapiens, UniProt P14416); assay: Competition radioligand binding at human D2 receptor ([3H]-Spiperone, CHO-K1 membranes); conditions: mean ± SEM of 2–3 independent experiments in duplicate; read-out: huD2 Ki
T3 construct: expressed in transfected cells; host or cells: CHO-K1
Experimental: Experiments were carried out in membranes isolated from a CHO-K1 cell line stably overexpressing the cloned human D2S receptor.
as §1, §2

mice [4] = assay: Amphetamine-induced hyperactivity in mice; assay type: in vivo; conditions: amphetamine 3 mg/kg s.c.; for effect on amphetamine-induced hyperactivity after 10 min / effect on amphetamine-induced hyperactivity after 30 min: p < 0.05 vs amphetamine group
Experimental: The experiments were carried out on 6 weeks old naive Swiss male mice (Experimental Medicine Center (OMD), Lublin, Poland), weighing 28–30 g. The cages with mice were located in air-conditioned rooms maintaining the ambient temperature within the range of 23–25 °C. The animals were provided with a natural 12 h day/night cycle, replicating the day and night mode. Each testing group was represented by 8–10 animals, depending on the research schedule. All experiments were conducted according to the National Institute of Health Guidelines for the Care and Use of Laboratory Animals (8th edition) and to the European Community Council Directive for the Care and Use of Laboratory Animals of 22 September 2010 (2010/63/EU) and were approved by the Local Ethical Committee (number of ethical approval: 147/2018).
Compound 17 (25, 50, 75 mg/kg) was suspended in 1% Tween 80 in saline solution and was administered intraperitoneally (i.p.) 60 min before the test. Diazepam (DZ, Relanium, Polfa, Poland) at a dose of 1 mg/kg was diluted in 0.9% saline containing 1% Tween 80 and was administered subcutaneously (s.c.), 60 min before the test. Imipramine hydrochloride (30 mg/kg, Sigma-Aldrich was administered intraperitoneally (i.p.) 60 min before the test. D-amphetamine sulfate (3 mg/kg; Sigma-Aldrich, USA) was given subcutaneously (s.c.). Prior to administration, the agent was dissolved in saline and injected 30 min before the test. Control animals received an (i.p.) or (s.c.) injection of a respective vehicle. All compounds were injected in a manner generally accepted in experimental pharmacology, in an amount of 10 mL/kg body weight.
The measurement of the spontaneous locomotor activity was carried out using the OptoVarimex 4 Auto-Track device (Columbus Instruments, Columbus, OH, USA). Tested animals are kept in cages for 30 min. Their activity was recorded as interruptions of the light beams after 10 and 30 min of the test, and it was calculated automatically as a traveled distance in cm (±SEM). To determine whether compound 17 has an influence on amphetamine-induced hyperactivity, each mouse received 17 (25, 50 and 75 mg/kg; i.p.) and amphetamine (3 mg/kg; s.c.) 30 min after injection of 17 or vehicle and then spontaneous locomotor activity was measured.

T1 sequence (P35462 whole entry): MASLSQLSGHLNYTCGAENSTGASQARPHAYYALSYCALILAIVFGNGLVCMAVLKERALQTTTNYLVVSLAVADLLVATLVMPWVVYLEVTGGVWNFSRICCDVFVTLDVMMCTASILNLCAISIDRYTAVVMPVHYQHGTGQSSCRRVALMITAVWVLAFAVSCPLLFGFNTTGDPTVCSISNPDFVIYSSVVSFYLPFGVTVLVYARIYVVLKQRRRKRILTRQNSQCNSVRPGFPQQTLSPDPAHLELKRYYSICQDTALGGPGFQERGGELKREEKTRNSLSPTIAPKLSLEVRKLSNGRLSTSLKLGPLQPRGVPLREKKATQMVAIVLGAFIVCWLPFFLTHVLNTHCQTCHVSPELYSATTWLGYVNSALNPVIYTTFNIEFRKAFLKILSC
T3 sequence (P14416 1-414 isoform P14416-2): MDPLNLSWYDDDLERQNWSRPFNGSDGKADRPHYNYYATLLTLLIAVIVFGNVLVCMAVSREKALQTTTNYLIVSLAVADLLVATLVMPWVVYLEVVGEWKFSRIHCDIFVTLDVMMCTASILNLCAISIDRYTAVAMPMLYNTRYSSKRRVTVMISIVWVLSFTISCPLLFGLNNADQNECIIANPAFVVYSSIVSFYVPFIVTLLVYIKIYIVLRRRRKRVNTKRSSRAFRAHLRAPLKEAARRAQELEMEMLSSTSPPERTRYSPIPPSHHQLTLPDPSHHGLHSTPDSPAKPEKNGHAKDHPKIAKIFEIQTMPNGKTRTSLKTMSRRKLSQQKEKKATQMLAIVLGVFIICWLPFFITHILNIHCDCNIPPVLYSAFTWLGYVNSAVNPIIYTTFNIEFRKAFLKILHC
T2 sequence (P21728 whole entry): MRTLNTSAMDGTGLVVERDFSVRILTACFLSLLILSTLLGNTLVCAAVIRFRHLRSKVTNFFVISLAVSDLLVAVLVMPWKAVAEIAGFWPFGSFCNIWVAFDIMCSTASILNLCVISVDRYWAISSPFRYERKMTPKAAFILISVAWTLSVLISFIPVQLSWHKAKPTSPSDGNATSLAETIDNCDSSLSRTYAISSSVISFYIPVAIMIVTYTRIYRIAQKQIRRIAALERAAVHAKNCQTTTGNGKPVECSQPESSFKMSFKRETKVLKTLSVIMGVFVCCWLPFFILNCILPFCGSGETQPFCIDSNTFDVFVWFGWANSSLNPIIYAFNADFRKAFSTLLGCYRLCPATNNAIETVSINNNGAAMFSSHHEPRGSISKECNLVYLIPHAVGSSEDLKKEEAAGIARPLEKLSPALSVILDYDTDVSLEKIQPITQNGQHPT

## O=C(CCN1C(=O)CSc2ccccc21)Nc1ccc(Cl)cc1 [Compound 17, N-(4-Chlorophenyl)-3-(3-oxo-2,3-dihydro-4H-benzo[b][1,4]thiazin-4-yl)propanamide]
[1]
  inhibition at 10 µM: 6 ± 3%
Mice [2]
  effect on behavior in the chimney test: did not change the behavior
  time to leave the chimney: ≤ 30 s
[3]
  inhibition at 10 µM: 21 ± 2%
Human D2S receptor
  Ki: 381 ± 48 nM
Mice [4]; 25 mg/kg i.p.
  effect on amphetamine-induced hyperactivity: inactive
Mice [4]; 50 mg/kg i.p.
  effect on amphetamine-induced hyperactivity after 10 min: decreased
  effect on amphetamine-induced hyperactivity after 30 min: decreased
Mice [4]; 75 mg/kg i.p.
  effect on amphetamine-induced hyperactivity after 10 min: decreased
  effect on amphetamine-induced hyperactivity after 30 min: decreased
